# Measured values reported in patent US6410561B1, “Amide derivatives and nociceptin antagonists” (Japan Tobacco Inc., priority 1998, dated 2002).
# Like-named read-outs stand apart in the source and are kept apart here.
# What was measured:
# μ receptor = target: T1, μ receptor (Rattus norvegicus, UniProt P33535); experiment: μ receptor binding assay ([3H]DAMGO); details: for Ki: calculated from IC50 and Kd of [3H]DAMGO; for IC50: rat cerebrum membrane, [3H]DAMGO 1 nM
# T1 construct: Rat cerebrum membrane standard sample; from tissue; host or cells: rat cerebrum membranes
# Method: Rat cerebrum membrane standard sample (final concentration 0.755 mg·protein/ml), [^3H]DAMGO (Try-D-Ala-Gly-NMe-Phe-Gly-ol) [diluted with Tris buffer (50 mM Tris-HCl, 0.1 mM p-APMSF, 2 mg/ml BSA (pH=7.4)) to a final concentration of 1 nM] and test compound (diluted with Tris buffer to a final concentration of 10 nM-10 μM) were mixed, and the mixture was incubated at room temperature for 90 min. The membrane was recovered on a G/F-B filter (same as above) using a cell harvester and the reaction was stopped. After washing 3 times, the filter was dried at 42° C. for 1 hr. A scintillation solution (same as above) was added and the radioactivity (same as above) was assayed.
# (§1) The nonspecific binding was the binding in the presence of 10 μM naloxone and the difference between the total binding and nonspecific binding was taken as the specific binding. IC50 was calculated from inhibition of specific binding at each concentration of the compound, and Ki value of the test compound was calculated from this value and Kd value of [^3H]DAMGO.
# Mice = experiment: Hot-plate test; type: in vivo; details: Mus musculus, 1 h, oral, 60 min after administration, 55.5°C, read-out: Hot-plate M.E.D. (minimum effective dose)
# Method: Mice (Crj, ICR, 4-week-old, male) were placed on a hot-plate (temperature 55.5±0.5° C.) and the time until the mice jumped and tried to run away was recorded. The mice were grouped according to the time and body weight so that the groups were evenly membered. The test compound was suspended in a 0.5% methylcellulose (MC) solution and orally administered to mice. After 60 min, the mice were again placed on a hot-plate and the time until they licked the hindlimb or jumped and tried to run away was recorded. The significant difference from the group administered with solvent was analyzed with ANOVA followed by Dunnett two-tailed test.
# ORL-1 receptor = target: T2, ORL-1 receptor (Homo sapiens, UniProt P41146); experiment: ORL1 receptor binding assay ([3H]nociceptin); details: for Ki: calculated from IC50 and Kd of [3H]nociceptin; for IC50: membrane of human ORL-1 expression cells, [3H]nociceptin 0.5 nM
# T2 construct: expressed in transfected cells
# Method: ORL1 Receptor Binding Assay
# A cell membrane suspension obtained from human ORL-1 expression cells was adjusted with Tris buffer [50 mM Tris, 2 mM EDTA, 0.1 mM (p-Amidinophenyl)methanesulfonyl Fluoride Hydrochloride (p-APMSF), 2 mg/ml BSA] to membrane protein amount of about 25 μg/ml (2.5 μg/well). This was mixed with [^3H]nociceptin (diluted with Tris buffer to a final concentration of 0.5 nM) and test compound (diluted with Tris buffer to a final concentration of 10 nM-10 μM), and the mixture was incubated at room temperature for 60 min. The membrane was recovered on a G/F-B filter (Packard, Unifilter 96GF/B) using a cell harvester and the reaction was stopped. After washing 3 times, the filter was dried at 42° C. for 1 hr. A scintillation solution (Packard, microscint-20) was added and the radioactivity (Packard, Top count A9912V) was assayed.
# as §1, with “1” for “10”, “nociceptin” for “naloxone”, “[^3H]nociceptin.” for “[^3H]DAMGO.”
# allodynia model = experiment: Allodynia test (intrathecal nociceptin, tactile stimulation); type: in vivo, Mice; details: Mus musculus, read-out: Allodynia M.E.D. (minimum effective dose)
# Method: Mice (Crj, ICR, 4-week-old, male) were intrathecally administered with nociceptin (50 pg/5 μl) without anesthesia. For 20 min after administration and at 5 min intervals, an area from lateral region to tail of the mice was rubbed with a brush and the response of the mice was observed. The evaluation followed the criteria of 0; no change, 1; run or cry upon tactile stimulation, and 2; cry loud or dash away upon tactile stimulation. The test compound was suspended in a 0.5% MC solution and orally administered 60 min before nociceptin administration. The significant difference of the score of each administration group at 20 min after nociceptin administration from the group administered with solvent was analyzed with Mann-Whitny U-test.
# [1] = mice, oral, 60 min before nociceptin 50 pg i.t., score at 20 min
# T2 sequence (P41146 whole entry): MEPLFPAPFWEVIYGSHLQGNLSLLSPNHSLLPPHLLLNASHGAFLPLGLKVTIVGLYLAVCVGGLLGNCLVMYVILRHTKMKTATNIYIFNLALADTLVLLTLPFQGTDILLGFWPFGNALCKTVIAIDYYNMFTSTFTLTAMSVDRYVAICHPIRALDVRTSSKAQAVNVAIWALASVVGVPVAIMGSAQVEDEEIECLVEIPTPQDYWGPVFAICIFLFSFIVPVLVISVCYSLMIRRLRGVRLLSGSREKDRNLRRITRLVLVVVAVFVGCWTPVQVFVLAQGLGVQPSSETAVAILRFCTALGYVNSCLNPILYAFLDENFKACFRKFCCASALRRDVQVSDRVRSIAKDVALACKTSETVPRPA
# T1 sequence (P33535 whole entry): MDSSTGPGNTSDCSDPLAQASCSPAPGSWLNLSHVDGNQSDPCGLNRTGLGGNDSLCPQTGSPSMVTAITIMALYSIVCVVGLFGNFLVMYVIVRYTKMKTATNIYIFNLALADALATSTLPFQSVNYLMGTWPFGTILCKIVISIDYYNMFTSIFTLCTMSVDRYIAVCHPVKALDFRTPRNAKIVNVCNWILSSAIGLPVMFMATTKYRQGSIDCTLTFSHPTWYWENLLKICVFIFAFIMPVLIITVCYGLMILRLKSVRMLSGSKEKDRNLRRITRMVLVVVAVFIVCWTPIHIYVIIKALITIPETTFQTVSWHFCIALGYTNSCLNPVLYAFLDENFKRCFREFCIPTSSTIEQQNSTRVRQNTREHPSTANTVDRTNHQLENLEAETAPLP
SMILES,Ki (μ receptor) [µM],IC50 (μ receptor) [µM],minimal effective dose (Mice) [mg/kg],Ki (ORL-1 receptor) [µM],IC50 (ORL-1 receptor) [µM],minimal effective dose (allodynia model; [1]) [mg/kg],melting point [°C],minimal effective dose (allodynia model; po) [mg/kg]
"CCc1ccc(OCc2ccccc2C(=O)Nc2ccc3nc(C)cc(N)c3c2)c(Cl)c1.Cl [Example 89, N-(4-amino-2-methyl-6-quinolyl)-2-[(2-chloro-4-ethylphenoxy)methyl]benzamide hydrochloride]",0.548,1.46,1,0.006,0.13,0.3,245.9,–
"Cc1cc(N)c2cc(NC(=O)c3ccccc3COc3ccc(C#N)cc3)ccc2n1.Cl [Example 16, N-(4-amino-2-methyl-6-quinolyl)-2-[(4-cyanophenoxy)methyl]benzamide hydrochloride]",0.259,0.69,3,0.006,0.11,0.1,286,–
"Cc1cc(N)c2cc(NC(=O)c3ccccc3COc3cccc([N+](=O)[O-])c3)ccc2n1.Cl [Example 19, N-(4-amino-2-methyl-6-quinolyl)-2-[(3-nitrophenoxy)methyl]benzamide hydrochloride]",0.388,1.03,3,0.009,0.16,0.1,245,–
COc1ccc(CCc2ccccc2C(=O)Nc2ccc3nc(C)cc(N)c3c2)cc1.Cl [Example 84],0.419,1.11,> 10,0.129,2.52,< 3,285,–
"Cc1cc(N)c2cc(NC(=O)c3ccccc3COc3ccc(Cl)cc3Cl)ccc2n1.Cl [Example 2, N-(4-amino-2-methyl-6-quinolyl)-2-[(2,4-dichlorophenoxy)methyl]benzamide hydrochloride]",0.497,1.33,1,0.004,0.07,0.3,262,–
"Cc1ccc(OCc2ccccc2C(=O)Nc2ccc3nc(C)cc(N)c3c2)cc1.Cl [Example 17, N-(4-amino-2-methyl-6-quinolyl)-2-[(4-methylphenoxy)methyl]benzamide hydrochloride]",0.385,1.02,1,–,0.13,–,255,0.3
